# Assays:
# Caco-2 cells = assay: MTT cell viability assay; format: cell-based, human; conditions: Caco-2, MTT, n = 10
# Protocol: A Caco-2 immortalized human adenocarcinoma cell line was purchased from The European Collection of Cell Cultures (ECACC). Cells were seeded and maintained in plastic cell culture flasks in Dulbecco's Modified […] medium (DMEM Sigma-Aldrich Ltd., Budapest, Hungary). Cell culturing media was supplemented with 2 mM L-glutamine, 100 mg/L gentamycin (Sigma-Aldrich Ltd., Budapest, Hungary) and 10% heat inactivated fetal bovine serum (FBS) (Sigma-Aldrich Ltd., Budapest, Hungary). Cells were stored in incubators at 37 °C in a 5% CO2 atmosphere. The colon epithelial Caco-2 cell line forms a single cell layer with well-defined tight junctions. Caco-2 cell viability was evaluated using the MTT method. Cells were harvested and seeded at a density of 10^4 cells/well on flat-bottom 96-well tissue culture plates. Cells were allowed to grow for 7 days under the abovementioned conditions. For the viability measurements, the DMEM was removed. […] Mitochondrial activity of the cells was determined after 3 h incubation with MTT at the concentration of 0.50 mg/mL. […] The absorbance of dissolved formazan crystals correlates with the ratio of the living cells. Absorbance was measured with a FLUOstar OPTIMA Micro-plate Reader (BMG LABTECH, Offenburg, Germany) at 570 nm against a 690 nm reference.
# pancreatin = assay: Enzymatic stability in simulated intestinal fluid (SIF) with pancreatin; format: in vitro ADME, porcine; conditions: 37 °C, 100 rpm, RIA, mean ± SD, n = 3
# Protocol: (§1) Enzymatic degradation in the presence of proetolytic enzymes pepsin and pancreatin was investigated. Peptide-loaded particles were added to 100 mL of artificial gastric fluid (simulated gastric fluid—SGF) with pepsin, or artificial intestinal fluid (simulated intestinal fluid—SIF) with pancreatin and incubated at 37 °C under moderate stirring at 100 rpm. SGF and SIF were prepared as per European Pharmacopoeia specifications. A total of 1000 µL samples were collected at determined time intervals for 120 min, and an equal volume of ice-cold reagent was added to stop the enzymatic reaction (0.10 M NaOH for SGF and 0.10 M HCl for SIF). Samples were analyzed by radioimmunoassay.
# pepsin [1] = tested on: T1, pepsin; assay: Enzymatic stability in simulated gastric fluid (SGF) with pepsin; format: in vitro ADME, porcine; conditions: pig, simulated gastric fluid (SGF) with pepsin; SGF with pepsin (Ph. Eur.), 37 °C, 100 rpm, 30 min; RIA; mean ± SD, n = 3; read-out: active MCH measured after incubation in SGF
# T1 construct: purchased Sigma-Aldrich; host or cells: porcine gastric mucosa
# Protocol: as §1
# pepsin [2] = target: T2, pepsin (Sus scrofa, UniProt P00791); assay: as above; format: in vitro ADME, porcine; conditions: SGF with pepsin, 37 °C, 100 rpm, 1 h; RIA; n = 3
# T2 construct: purchased Sigma-Aldrich; host or cells: porcine gastric mucosa
# Protocol: as §1
# T2 sequence (P00791 60-385): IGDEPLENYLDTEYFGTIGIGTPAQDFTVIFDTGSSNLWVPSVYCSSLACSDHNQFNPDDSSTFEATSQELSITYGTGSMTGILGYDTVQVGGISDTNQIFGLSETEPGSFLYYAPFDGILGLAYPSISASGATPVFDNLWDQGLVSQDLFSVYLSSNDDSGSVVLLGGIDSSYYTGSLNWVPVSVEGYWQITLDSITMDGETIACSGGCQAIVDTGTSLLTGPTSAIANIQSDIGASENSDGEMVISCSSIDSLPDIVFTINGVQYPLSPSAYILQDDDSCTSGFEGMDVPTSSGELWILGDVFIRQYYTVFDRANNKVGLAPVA
smiles,measurement,setting,value
"O.O.[Ca+2].[Cl-].[Cl-] [calcium-chloride dihydrate, Calcium chloride dihydrate]",toxicity in MTT assay (in words),"Caco-2 cells; 30 min incubation, also at higher concentrations",did not show relevant toxicity
"CSCC[C@@H]1NC(=O)[C@@H](NC(=O)[C@H](CCCNC(=N)N)NC(=O)[C@H](CC(C)C)NC(=O)[C@H](CCSC)NC(=O)[C@H](CC(=O)O)NC(=O)[C@H](Cc2ccccc2)NC(=O)[C@@H](N)CC(=O)O)CSSC[C@@H](C(=O)N[C@@H](Cc2c[nH]c3ccccc23)C(=O)N[C@@H](CCC(N)=O)C(=O)N[C@H](C(=O)O)C(C)C)NC(=O)[C@@H]2CCCN2C(=O)[C@H](CCCNC(=N)N)NC(=O)[C@H](Cc2ccc(O)cc2)NC(=O)[C@H](C(C)C)NC(=O)[C@H](CCCNC(=N)N)NC(=O)CNC(=O)[C@H](CC(C)C)NC1=O [MCH, Melanin concentrating hormone]",MCH recovery after incubation with SIF,"pancreatin; SIF with pancreatin, 2 h",1.00 ± 0.50%
same,remaining at 0.5 h,"pancreatin; pig, simulated intestinal fluid (SIF) with pancreatin, SIF with pancreatin (Ph. Eur.), 30 min, read-out: active MCH measured after incubation in SIF",8 ± 0.5%
same,remaining at 0.5 h,pepsin [1],3 ± 0.5%
same,degradation after incubation in SGF,pepsin [2],completely degraded
"CCOCCOCCO [Transcutol HP, Diethylene glycol monoethyl ether]",IC50 (cytotoxicity),"Caco-2 cells; 30 min incubation with sample, 3 h MTT 0.50 mg/mL, absorbance 570 nm",0.37 v/v%

# — paper PMC8778866, “Oral Bioavailability Enhancement of Melanin Concentrating Hormone, Development and In Vitro Pharmaceutical Assessment of Novel Delivery Systems” (Pharmaceutics, 2021)
